Assay results published in PMC11901765, “Discovery of N-(2-Acetamidobenzo[d]thiazol-6-yl)-2-phenoxyacetamide Derivatives as Novel Potential BCR-ABL1 Inhibitors Through Structure-Based Virtual Screening” (Molecules, 2025).
Like-named read-outs stand apart in the source and are kept apart here.

How the values were obtained:
[1] = test system: Ba/F3 (BCR-ABL1) cells; assay: CCK-8 viability assay, Ba/F3 (BCR-ABL1) cells; assay type: cell-based; details: for Ba/F3 (BCR-ABL1) Inhibition (%): measured at 10 μM; for Ba/F3 (BCR-ABL1) Inhibition (%) / GI50 / IC50: mean ± SD; for GI50: Mus musculus, BaF3, CCK8 kit; for IC50: Table 3
Procedure: (§1) Cell viability was assessed using the Cell Counting Kit-8 (CCK-8) assay. […] After 72 h of incubation, 10 μL of CCK-8 reagent was added to each well, and the plates were further incubated for 2–4 h. Absorbance was measured at 450 nm using a microplate reader. Dose-response curves were generated and analyzed using GraphPad Prism 8 (version 8.4.3.686).

[2] = test system: parental Ba/F3 cells; assay: CCK-8 viability assay, parental Ba/F3 cells; assay type: cell-based; details: mean ± SD; for GI50: CCK8 kit; for IC50: Table 3
Procedure: as §1

[3] = test system: MV411; assay: CCK-8 viability assay, MV411 cells; assay type: cell-based
Procedure: as §1

[4] = test system: HL60; assay: CCK-8 viability assay, HL60 cells; assay type: cell-based
Procedure: as §1

[5] = test system: K562 cells; assay: Apoptosis assay (Annexin V/PI flow cytometry); details: 10m 10 μM, asciminib 5 μM, 48 or 72 h
Procedure: Cell apoptosis was evaluated through Annexin V and propidium iodide (PI) dual staining using an Annexin V-FITC Apoptosis Detection Kit (Vazyme, #A211-02, Nanjing, China) following the manufacturer’s protocol.

[6] = test system: Ba/F3 (BCR-ABL^T315I) cells; assay: CCK-8 viability assay, Ba/F3 (BCR-ABL^T315I) cells; assay type: cell-based; details: Table 3; mean ± SD
Procedure: as §1

[7] = test system: K562 cells; assay: CCK-8 viability assay, K562 cells; assay type: cell-based; details: 72 h; read-out: GI50 (IC50) K562 cells
Procedure: Cell viability was assessed using the Cell Counting Kit-8 (CCK-8) assay. Cells were seeded in 96-well plates at a density of 10,000 cells per well in RPMI 1640 medium. Test compounds were prepared by serially diluting stock solutions 3-fold in DMSO to generate an eight-point concentration gradient (100 μM to 0.045 μM), followed by addition to the cultured cells. After 72 h of incubation, 10 μL of CCK-8 reagent was added to each well, and the plates were further incubated for 2–4 h. Absorbance was measured at 450 nm using a microplate reader. Dose-response curves were generated and analyzed using GraphPad Prism 8 (version 8.4.3.686).

[8] = test system: K562 cells; assay: Synergy study with asciminib (CCK-8, SynergyFinder 3.0, ZIP model); assay type: cell-based
Procedure: The drug combination effects were quantified as percentage inhibition of cell viability. The experimental data were analyzed using SynergyFinder 3.0, with a four-parameter logistic regression (LL4) model selected for curve fitting and data analysis. The Synergy Score based on the ZIP (Zero Interaction Potency) model is used to evaluate the synergistic effects of drug combinations.

[9] = test system: BCR-ABL-dependent signaling (p-ABL1, p-STAT5, p-CRKL) in K562 cells; assay: Western blot of BCR-ABL-dependent signaling; assay type: cell-based; details: 3.3 and 10 μM, 1 h
Procedure: Western blot analysis was conducted following established protocols. K562 cells were treated with varying concentrations of the test compound for 60 min, followed by protein extraction using RIPA buffer. Protein quantification was performed using bicinchoninic acid assay, and 30–60 μg of protein samples were resolved by 10% sodium dodecyl sulfate-polyacrylamide gel electrophoresis before being transferred onto nitrocellulose membranes. Membranes were probed with primary antibodies overnight at 4 °C. Following incubation with horseradish peroxidase (HRP)-conjugated secondary antibodies (Thermo Scientific, Waltham, MA, USA), protein bands were detected using a chemiluminescent HRP substrate (Millipore Corporation, #WBKLS0500, Billerica, MA, USA) and imaged with a Syngene GeneGnome-XRQ-NPC imager (Synoptics, Britain). Quantitative analysis was performed by measuring band intensity using ImageJ (version 1.43) software. The following primary antibodies were used: c-Abl (ABclonal, #A0282, Woburn, MA, USA), phosphor-c-Abl (ABclonal, #AP0001), STAT5 (ABclonal, #A5029), phosphor-STAT5 (ABclonal, #AP0887), CRKL (ABclonal, #A11735), and phospho-CRKL (ABclonal, #AP0824).

[10] = Table 3, mean ± SD, read-out: IC50 MV411
[11] = Table 3, mean ± SD, read-out: IC50 HL60

## N-(2-Acetamidobenzo[d]thiazol-6-yl)-2-(3-fluorophenoxy)acetamide [Compound 10h]
[1]
  Ba/F3 (BCR-ABL1) Inhibition (%): 61 ± 5%

## CCC(=O)Nc1nc2ccc(NC(=O)COc3ccccc3)cc2s1 [Compound A12]
[1]
  GI50: 10.7 ± 2.6 µM
[2]; Mus musculus, BaF3
  GI50: > 100 µM

## N-(2-Acetamidobenzo[d]thiazol-6-yl)-2-phenoxyacetamide [Compound 10a]
[1]
  Ba/F3 (BCR-ABL1) Inhibition (%): 52 ± 5%

## N-(2-Acetamidobenzo[d]thiazol-6-yl)-2-(m-tolyloxy)acetamide [Compound 10t]
[1]
  Ba/F3 (BCR-ABL1) Inhibition (%): 28 ± 5%

## O=C(Nc1ccc(OC(F)(F)Cl)cc1)c1cnc(N2CC[C@@H](O)C2)c(-c2cc[nH]n2)c1 [Asciminib, reference compound]
[2]; Mus musculus, BaF3
  GI50: > 100 µM
  IC50: > 100 µM
[3]; Homo sapiens, MV4-11, read-out: IC50 MV411
  IC50: > 100 µM
[4]; Homo sapiens, HL-60, read-out: IC50 HL60
  IC50: > 100 µM
[5]
  apoptosis induction (in words): significantly induced apoptosis

## Cc1ccc(S(=O)(=O)Nc2nc3ccc(NC(=O)COc4ccccc4)cc3s2)cc1 [Compound A15]
[1]
  GI50: 3.9 ± 0.5 µM
[2]; Mus musculus, BaF3
  GI50: 42.9 ± 10.4 µM

## N-(2-Acetamidobenzo[d]thiazol-6-yl)-2-(4-fluorophenoxy)acetamide [Compound 10i]
[1]
  Ba/F3 (BCR-ABL1) Inhibition (%): 58 ± 2%

## CS(=O)(=O)Nc1nc2ccc(NC(=O)COc3ccccc3)cc2s1 [Compound A14]
[1]
  GI50: 1.2 ± 0.2 µM
[2]; Mus musculus, BaF3
  GI50: 37.6 ± 5.7 µM

## CCC(=O)Nc1nc2ccc(NC(=O)COc3ccc(Cl)cc3)cc2s1 [Compound A8]
[1]; 10 μM
  inhibition of Ba/F3 (BCR-ABL1) cells (in words): showed inhibition potency
[1]
  GI50: 6.4 ± 1.6 µM
[2]; Mus musculus, BaF3
  GI50: > 100 µM

## N-(2-Acetamidobenzo[d]thiazol-6-yl)-2-(2-fluorophenoxy)acetamide [Compound 10g]
[1]
  Ba/F3 (BCR-ABL1) Inhibition (%): 65 ± 3%

## N-(2-Acetamidobenzo[d]thiazol-6-yl)-2-(3-chlorophenoxy)acetamide [Compound 10k]
[1]
  Ba/F3 (BCR-ABL1) Inhibition (%): 60 ± 6%

## O=C(COc1ccccc1)Nc1ccc2nc(NC(=O)c3ccccc3)sc2c1 [Compound A13]
[1]
  GI50: 19.5 ± 4.7 µM
[2]; Mus musculus, BaF3
  GI50: > 100 µM

## N-(2-Acetamidobenzo[d]thiazol-6-yl)-2-(naphthalen-2-yloxy)acetamide [Compound 10f]
[1]
  IC50: 2.2 ± 0.5 µM
  Ba/F3 (BCR-ABL1) Inhibition (%): 88 ± 2%
[2]
  IC50: > 100 µM
[6]
  IC50: > 100 µM
[3]; [10]
  IC50: > 100 µM
[4]; [11]
  IC50: > 100 µM
[7]
  IC50: 2.7 µM

## N-(2-Acetamidobenzo[d]thiazol-6-yl)-2-(2-chlorophenoxy)acetamide [Compound 10j]
[1]
  Ba/F3 (BCR-ABL1) Inhibition (%): 68 ± 2%

## N-(2-Acetamidobenzo[d]thiazol-6-yl)-2-(3,4-dichlorophenoxy)acetamide [Compound 10m]
[1]
  IC50: 0.63 ± 0.1 µM
  Ba/F3 (BCR-ABL1) Inhibition (%): 93 ± 5%
[2]
  IC50: > 100 µM
[6]
  IC50: 25.2 ± 1.1 µM
[3]; [10]
  IC50: > 100 µM
[4]; [11]
  IC50: 54.2 ± 5.5 µM
[7]
  IC50: 0.98 µM
[8]
  effect in combination with asciminib (in words): powerful synergistic activity
[9]
  inhibition of BCR-ABL-dependent signaling pathway (in words): potently inhibited
[5]
  apoptosis induction (in words): significantly induced apoptosis

## N-(2-Acetamidobenzo[d]thiazol-6-yl)-2-(o-tolyloxy)acetamide [Compound 10s]
[1]
  Ba/F3 (BCR-ABL1) Inhibition (%): 22 ± 2%

## Cc1ccc(NC(=O)c2ccc(CN3CCN(C)CC3)cc2)cc1Nc1nccc(-c2cccnc2)n1 [Imatinib, imatinib, reference compound]
[8]
  effect in combination with asciminib (in words): antagonistic effect

## N-(2-Acetamidobenzo[d]thiazol-6-yl)-2-(4-chlorophenoxy)acetamide [Compound 10l]
[1]
  Ba/F3 (BCR-ABL1) Inhibition (%): 71 ± 4%
